From PMC6331810, “Novel Coumarin-Containing Aminophosphonatesas Antitumor Agent: Synthesis, Cytotoxicity, DNA-Binding and Apoptosis Evaluation” (Molecules, 2015)

Legend:
[1] = tested on: MGC-803 (human lung adenocarcinoma cell line); assay: MTT cytotoxicity assay, MGC-803; type: cell-based; conditions: 48 h, no irradiation, mean ± SD of three experiments
Method: (§1) Cell Lines. The following in vitro human cancer cell lines were used: HCT-116 (Human colorectal cells), human KB (human nasopharyngeal carcinoma cells), MGC-803 (human lung adenocarcinoma cell line), HUVEC (Human Umbilical Vein Endothelial Cells). The cell lines (HCT-116, KB, MGC-803 and HUVEC) were purchased from the Cell Resource Center of Shanghai Institutes for Biological Sciences, the Academy of Sciences of China.
(§2) Cell Culture. HCT-116, human KB, MGC-803 and HUVEC cells were cultured in Dulbecco Modified Eagle Medium (DMEM; HyClone, Los Angeles, CA, USA), containing 4.0 mM L-Glutamine and 4500 mg/L Glucose, supplemented with 10% (v/v) foetalbovine serum (FBS; HyClone). The cell culturemedia was supplemented with penicillin/streptomycin at 100 Units/mL as adherent monolayers. Cell cultures were kept in a humidified incubator with 5% CO2 at 37 °C. Stock solutions were prepared in dimethyl sulfoxide (DMSO) and further dilutions were made with fresh culture medium. The concentration of DMSO in the final culture medium was 1%, which had no effect on the cell viability.
(§3) MTT Assay. Chemosensitivity was assessed using 3-(4,5-dimethylthiazol-2-yl)-2,5-diphenyl tetrazolium bromide (MTT) assay. Briefly, exponentially growing HCT-116 (3000–4000 cells/well), human KB (2000–3000 cells/well) and MGC 803 (2000–3000 cells/well) were seeded into 96-well plates and treated with indicated concentrations of samples for 48 h, and then […] of MTT (10 mg/mL) was added. After incubation for 4 h at 37 °C, the purple formazan crystals (i.e., a reduced form of MTT) generated from viable cells were dissolved by adding 100 μL DMSO in each well. The plates were swirled gently for 10 min to dissolve the precipitate, and quantified by measuring the optical density (OD) of the plates at a wavelength of 490 nm on plate reader (TECAN infinite M1000). Each concentration was repeated in three wells and the same experimental conditions were provided for all compounds and MTT analysis was repeated three times for each cell line.

HCT-116 cells = assay: Apoptosis and cell cycle analysis by flow cytometry (PI staining); type: cell-based, human; conditions: HCT-116, 48 h at IC50 concentration
Method: Compared to the control (untreated cells), changes in the cell cycle distribution of treated HCT-116 cells were evident.
Figure 6 Inhibition of cell cycle progress in HCT-116 cells treated with compounds 8d, 8f, 8c and 8j for 48 h. Cells were fixed with ethanol and stained with PI. Cell cycle distribution was analyzed by flow cytometry. First peak represents sub-G1 peak, which was taken as the fraction of the apoptotic cell population. TEXT PRINTED IN THE PICTURE: 8d: Diploid: 100.00%; Dip G1: 87.24 % at 74.84; Dip G2: 7.42 % at 147.44; Dip S: 5.34 % | 8f: Diploid: 100.00%; Dip G1: 74.25 % at 73.13; Dip G2: 10.86 % at 144.07; Dip S: 14.89 % | 8c: Diploid: 100.00%; Dip G1: 82.72 % at 72.85; Dip G2: 6.28 % at 143.51; Dip S: 11.00% | 8j: Diploid: 100.00%; Dip G1: 15.12 % at 45.10; Dip G2: 52.47 % at 88.84; Dip S: 32.40%; Apoptosis: 4.01 % Mean: 33.84 | Control (−): Diploid: 100.00%; Dip G1: 35.32 % at 52.60; Dip G2: 19.20 % at 103.62; Dip S: 45.84% DOUBTS OF THE COPYIST ABOUT THIS PICTURE: Print is small throughout, so 3, 5, 6, 8 and 9 cannot be told apart with certainty in the values below; best readings are given. / 8d, Dip G1: 87.24 % at 74.84, the 8s uncertain / 8d, Dip S: 5.34, the 5 and 3 uncertain / 8f, Dip G2: 10.86 % at 144.07, the 8 and 6 uncertain / 8f, Dip S: 14.89, the 8 and 9 uncertain / 8c, Dip G1: 82.72 % at 72.85, the 8s and 5 uncertain / 8c, Dip G2: 6.28 % at 143.51, the 6, 8, 3 and 5 uncertain / 8j, Dip G2: 52.47 % at 88.84, the 5 and 8s uncertain / 8j, Apoptosis: 4.01 % Mean: 33.84, the 3s and 8 uncertain / Control (−), Dip G1: 35.32 % at 52.60, the 3s, 5s and 6 uncertain / Control (−), Dip G2: 19.20 % at 103.62, the 9, 3 and 6 uncertain / Control (−), Dip S: 45.84, the 5 and 8 uncertain / Control (−) is an untreated control, not a compound; it is included because results are printed with it. / G2/G1: 1.97 and %CV, printed in every plot, are left out as fit parameter and statistic.
Apoptosis was quantified by assessing the fraction of cells with sub-G1 DNA content by flow cytometry. The cells lines were treated with indicated concentrations of compounds […]. After incubated for 48 h, cells were washed twice with ice-cold PBS, fixed and permeabilized with ice-cold 70% ethanol at −20 °C overnight. The cells were treated with 100 μg/mL RNase A at 37 °C for 30 min after washed with ice-cold PBS, and finally stained with 1 mg/mL propidium iodide (PI) in the dark at 4 °C for 30 min. Analysis was performed with the system software (Cell Quest; BD Biosciences, Franklin Lakes, NJ, USA).

CT-DNA = assay: Circular dichroism spectra of CT-DNA; type: binding, calf; conditions: [compound]/[DNA] 1:10; 1.5 × 10^−4 M DNA, 1.5 × 10^−5 M compound
Method: CD absorption spectra of DNA were measured in TBS at a 100 nm/min scan rate in the wavelength range from 200 to 500 nm, with 1.5 × 10^−4 M DNA in the absence and presence of each compound of 1.5 × 10^−5 M, respectively. The CD signal of TBS was taken as the background and subtracted from the spectra. All the spectroscopic experiments were performed at 25 °C.

[2] = tested on: HCT-116 (Human colorectal cells); assay: MTT cytotoxicity assay, HCT-116; type: cell-based; conditions: for IC50: MTT, 48 h, no irradiation, mean ± SD of three experiments
Method: as §1, §2, §3

[3] = tested on: HUVEC (Human Umbilical Vein Endothelial Cells); assay: MTT cytotoxicity assay, HUVEC normal cells; type: cell-based; conditions: no irradiation, mean ± SD of three experiments
Method: as §1, §2, §3

GelRed/CT-DNA = assay: GelRed-DNA competitive binding (fluorescence quenching); design: species or system calf; conditions: I0/I vs [Q]; [GelRed]/[DNA] = 1:10, ex 350 nm, em 590 nm

| SMILES | IC50 ([1]; Homo sapiens, MGC-803, light or radiation study) | Cell cycle effect in words (HCT-116 cells) | Negative AI decrease (CD absorption peak of CT-DNA at 247 nm) (CT-DNA) | Positive AI decrease (CD absorption peak of CT-DNA at 281 nm) (CT-DNA) | Fold of IC50 against HCT-116 relative to unsubstituted parent compound ([2]; HCT-116, vs 4-MU) | IC50 ([2]; Homo sapiens, HCT-116, light or radiation study) | IC50 ([3]; Homo sapiens, HUVEC, light or radiation study) | Kq (quenching constant of GelRed bound to DNA) (GelRed/CT-DNA) | IC50 [1] | G1-phase population (HCT-116 cells; untreated cells 35.32%) | IC50 [2] | IC50 [3] |
| --- | --- | --- | --- | --- | --- | --- | --- | --- | --- | --- | --- | --- |
| CCOP(=O)(OCC)C(C)(NC(=O)CCOc1ccc2c(C)cc(=O)oc2c1)c1ccccc1 (stereo not drawn) [Compound 8j, Diethyl 1-(3-(4-methyl-2-oxo-2H-chromen-7-yloxy)propanamido)-1-phenylethylphosphonate] | 14.6 ± 1.11 µM | accumulation of cells in the G2 phase accompanying reduction in the G1 phase | 30.4% | 26.82% | about 12 fold | 8.68 ± 3.2 µM | > 100 µM | 2350 M⁻¹ | – | – | – | – |
| CCOP(=O)(OCC)C(NC(=O)CCOc1ccc2c(C)cc(=O)oc2c1)c1cccc(Br)c1 (stereo not drawn) [Compound 8f, Diethyl(3-(4-methyl-2-oxo-2H-chromen-7-yloxy)propanamido)(3-bromophenyl)methylphospho-nate] | – | – | 26.9% | 23.1% | – | – | – | 1730 M⁻¹ | 74.2 ± 3.36 µM | 74.25% | 25.8 ± 1.21 µM | > 100 µM |
